IC50 data for twelve compounds are collected here from US11827628B2, “Compositions and methods for inhibition of the JAK pathway” (Rigel Pharmaceuticals, Inc., priority 2005, dated 2023).

The test system of this assay is up-regulation of ICAM-1 (CD54) by IFNγ in U937 human monocytic cells. The assay is described as follows: U937 IFNγ ICAM1 FACS Assay. It counts as cell-based. As to conditions: U937 cells stimulated with IFNγ; ICAM-1 expression by FACS; read-out: IC50, Example 44. In short, it runs like this: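 Readout was the geometric-mean APC anti-ICAM-1 signal by FACS on live U937 monocytic cells, with % live cells also recorded. Cells were exposed to compounds (8 points, 3-fold dilutions, duplicates) for 30 min at 37 °C before 18–24 h of IFNγ stimulation. EC50 values were computed from the dose curve.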
A general note: In flow cytometry, cells or beads pass a laser one at a time.

Broadly, the IC50 is the concentration at which inhibition is half-maximal. Regarding `Cc1ccc(Nc2ncc(F)c(Nc3ccc4c(c3)NC(=O)CS4)n2)cc1S(N)(=O)=O` [VII-45, N2-(3-Aminosulphonyl-4-methyl-phenyl)-5-fluoro-N4-(3-oxo-4H-benzo[1,4]thiazin-6-yl)-2,4-pyrimidinediamine], the half-inhibitory concentration (IC50) worked out at 0.477 µM. Turning to `CN1C(=O)CSc2ccc(Nc3nc(Nc4cccc(S(=O)(=O)N5CCCCC5)c4)ncc3F)cc21` [VII-50, 5-Fluoro-N4-(4-methyl-3-oxo-benz[1,4]thiazin-6-yl)-N2-(3-pipendinosulfonylphenyl)-2,4-pyrimidinediamine], the IC50 came to 5.06 µM. On to `CS(=O)(=O)N1CCc2cc(Nc3nc(Nc4cccc(S(N)(=O)=O)c4)ncc3F)ccc21` [VII-60, N2-(3-Aminosulfonylphenyl)-5-fluoro-N4-[4-(1-methylsulfonyl)indolin-5-yl]-2,4-pyrimidinediamine], for which the IC50 was 0.57 µM. Consider `CNS(=O)(=O)c1cc(Nc2ncc(F)c(Nc3ccc4c(c3)CCN4S(C)(=O)=O)n2)ccc1C` [VII-62, 5-Fluoro-N2-[3-(N-methylaminosulfony)-4-methylphenyl]-N4-[4-(1-methylsulfonyl)indolin-5-yl]-2,4-pyrimidinediamine], for which the concentration for half-maximal inhibition (IC50) was 0.496 µM. For `CS(=O)(=O)N1CCc2cc(Nc3nc(Nc4ccc(S(N)(=O)=O)cc4)ncc3F)ccc21` [VII-63], the half-maximal inhibitory concentration (IC50) is 6.03 µM.

Regarding `COc1ccc(Nc2nc(Nc3cc(C)c4c(c3)S(=O)(=O)NC=N4)ncc2F)cc1Cl` [VIII-3, N4-(3-Chloro-4-methoxyphenyl)-5-fluoro-N2-(5-methyl-2H-1,1-dioxo-1,2,4-benzothiadiazin-7-yl)-2,4-pyrimidinediamine], the IC50 is 10.1 µM. With “N2-(3-Aminosulfonyl-4-methylphenyl)-5-fluoro-N4-[4-(2-pyridinyl)-3-fluoromethyleneoxyphenyl]-2,4-pyrimidinediamine [Compound I-172]”, the concentration for half-maximal inhibition (IC50) was determined as 1.1 µM. On to “N2-(3-Aminosulphonylphenyl)-5-fluoro-N4-[4-(3-pyridinylmethyl)benzo[1,4]oxazin-7-yl]-2,4-pyrimidinediamine [VII-55]”, for which the IC50 stood at 1.67 µM. For “N2-(3-Aminosulphonylphenyl)-5-fluoro-N4-[4-(3-pyridinylmethyl)benzo[1,4]oxazin-7-yl]-2,4-pyrimidinediamine [VII-56]”, the IC50 came to 1.93 µM.

Regarding “N2-[3-Aminosulfonyl-4-(4-methylpiperazine-1-yl)phenyl]-N4-(3-cyanomethylene-1H-indol-6-yl)-5-fluoro-2,4-pyrimidinediamine [IX-17]”, the IC50 was 1.98 µM. As for “N2-[3-Aminosulfonyl-4-(4-methylpiperazine-1-yl)phenyl]-N4-(3-cyanomethylene-1H-indol-7-yl)-5-fluoro-2,4-pyrimidinediamine [IX-18]”, the IC50 worked out at 6.66 µM. For the compound “N4-(3-Chloro-4-cyanomethyleneoxyphenyl)-5-fluoro-N2-(5-methyl-2H-1,1-dioxide-1,2,4-benzothiadiazin-7-yl)-2,4-pyrimidinediamine [VIII-2]”, the 50% inhibitory concentration (IC50) worked out at 8.55 µM.
